Data: patent US7122328B2, “Gene involved in mineral deposition and uses thereof” (The Board of Trustees of the Leland Stanford Junior …, priority 2000, dated 2006)

Test system: COS cells
Assay: Intracellular/extracellular pyrophosphate levels in transfected COS cells
Assay type: cell-based
Details: overexpression in tissue culture cells
Text: Several protocols have previously been developed for measuring inorganic pyrophosphate in biological samples and any number of these are used in the in vitro assay. Some measure pyrophosphate hydrolysis to orthophosphate by calorimetry (McCarty et al., J. Lab. Clin. Med., 78:216–29 (1971)), while others use labeled substrates that couple with pyrophosphate in enzymatic reactions to determine pyrophosphate levels radiometrically (Cheung and Suhadolnik, Anal. Biochem., 83:61–3 (1977); Caswell and Russell, Biochim. Biophys. Acta, 847:40–7 (1985)). In another type of protocols, inorganic pyrophosphate is subjected to a series of coupled enzymatic phosphorylation and reduction to yield NADPH which can be quantified flourimetrically (Lust and Seegmiller, Clin. Chim. Acta, 66:241–9 (1976)). Although each of these can be used in the assay, the latter protocol is used with described modifications as follows.
COS cells grown in DMEM supplemented with 10% fetal bovine serum, 2 mM GlutaMax (Gibco), 0.1 mM non-essential amino acids, 100 units/ml Penicillin G, and 100 μg/ml Streptomycin are harvested and ˜1–2×10^6 cells are plated on a 100 mm tissue culture dish and incubated overnight at 37° C., 5% CO2. […]

In the case of “wild type ANK gene product: wild type ANK protein overexpressed in tissue culture cells; multiple-pass integral membrane protein of 492 amino acids”, the extracellular pyrophosphate levels is reported as “increase” and the intracellular pyrophosphate levels is reported as “dramatic reduction”.
